Patent US9468607B2, “Ligand directed toroidal nanoparticles for therapy and diagnostic imaging” (WASHINGTON UNIVERSITY, priority 2007, dated 2016)
Where two headings read alike, the source gives them in different places.

Legend:
[1] = Drug loading efficiency by reverse phase HPLC; format: physicochemical; conditions: drug encapsulated in nanoparticles
Description: Amphiphilic polymer (˜30 mg) was taken up in 3 mL of anhydrous chloroform (Aldrich, Inc.) and gently vortexed for 2 min. The organic phase (with or without the presence of any contrast agent, ˜5 mL of chloroform layer) was dried (anhydrous Na2SO4). Excess of anhydrous chloroform (35 mL) was added to the organic phase and was taken in a 50 mL, long necked test tube. Doxorubicin (0.27 mg/mL) was dissolved in 5 mL of nanopure water (0.2 μM) and was injected followed by gentle vortexing for few minutes. The chloroform was then slowly evaporated under reduced pressure at 45° C. for […], maintaining the pressure at 420-440 mbar. To this, an additional 5 mL of nanopure water (0.2 μM) was injected. The dispersion was sonicated in a Branson ultra sonic bath for ½ h (until a clear dispersion formed) maintaining the bath temperature at 50° C.
Amphiphilic polymer (˜27 mg) was taken up in 3 mL of anhydrous chloroform (Aldrich, Inc.) and gently vortexed for 2 min. The organic phase (with or without the presence of any contrast agent) was dried (anhydrous Na2SO4). […]
Doxorubicin was analyzed by reversed-phase HPLC system with Waters 600S as a controller, Waters 626 pump to deliver mobile phase, Waters 717 auto sampler for injection and Waters 474 scanning fluorescence detector at wavelength ex 470 nm/em 555 nm for detection. […]

[2] = for % Drug remaining: dialysis at 37° C.; for Drug release over 3 days: from nanoparticles, dialysis against 0.9% NaCl, 0.2 mg/ml human serum albumin, 37° C.

Structure (SMILES)	loading efficiency [1]	% Drug remaining ([2]; Day 1, in nanoparticles) [%]	% Drug remaining ([2]; Day 2, in nanoparticles) [%]	% Drug remaining ([2]; Day 3, in nanoparticles) [%]	Drug release over 3 days [2]
CC[C@@]1(O)C(=O)OCc2c1cc1n(c2=O)Cc2cc3ccccc3nc2-1 [Camptothecin]	99+/−0.1%	93.48	87.57	83.38	20+/−3.5%
COc1cccc2c1C(=O)c1c(O)c3c(c(O)c1C2=O)C[C@@](O)(C(=O)CO)C[C@@H]3O[C@H]1C[C@H](N)[C@H](O)[C@H](C)O1 [Doxorubicin]	98+/−0.1%	–	–	–	12+/−0.6%
